Values quoted from earlier work, collected in US4203975A, “Psychopharmacological peptides suitable for therapeutic administration” (Akzona Incorporated, priority 1977, dated 1980).

Experiments:
[1] = prior art
[2] = test system: rats; conditions: rats from which the hypophysis or the posterior lobe thereof has been removed

| Molecule | pressor activity [1] | inhibition of the extinction of the conditioned flight response [2] |
| --- | --- | --- |
| NC(=O)CC[C@@H]1NC(=O)[C@H](Cc2ccccc2)NC(=O)[C@H](Cc2ccc(O)cc2)NC(=O)[C@@H](N)CSSC[C@@H](C(=O)N2CCC[C@H]2C(=O)N[C@@H](CCCN=C(N)N)C(=O)NCC(N)=O)NC(=O)[C@H](CC(N)=O)NC1=O [vasopressin] | extremely powerful pressor activity | – |
| (Lys)-vasopressin zinc tannate | – | capable of inhibiting the extinction of the conditioned flight response |
